According to ChEMBL document CHEMBL1135600, “Novel tricyclic-alpha-alkyloxyphenylpropionic acids: dual PPARalpha/gamma agonists with hypolipidemic and antidiabetic activity” (J Med Chem, 2002):
pEC50: −log10 of the molar value. Several values for one entry are separate records, joined by “and”; a condition that tells them apart may be missing. Identical values can stand only once. Activity calls are given as the source filed them. The rule behind the calls is not given here.

Key:
[1] = target: T1, Peroxisome proliferator-activated receptor alpha (Homo sapiens, UniProt Q07869); assay: In vitro transactivation using receptor transactivation assay against hPPAR alpha; assay type: functional
T1 sequence (Q07869 whole entry): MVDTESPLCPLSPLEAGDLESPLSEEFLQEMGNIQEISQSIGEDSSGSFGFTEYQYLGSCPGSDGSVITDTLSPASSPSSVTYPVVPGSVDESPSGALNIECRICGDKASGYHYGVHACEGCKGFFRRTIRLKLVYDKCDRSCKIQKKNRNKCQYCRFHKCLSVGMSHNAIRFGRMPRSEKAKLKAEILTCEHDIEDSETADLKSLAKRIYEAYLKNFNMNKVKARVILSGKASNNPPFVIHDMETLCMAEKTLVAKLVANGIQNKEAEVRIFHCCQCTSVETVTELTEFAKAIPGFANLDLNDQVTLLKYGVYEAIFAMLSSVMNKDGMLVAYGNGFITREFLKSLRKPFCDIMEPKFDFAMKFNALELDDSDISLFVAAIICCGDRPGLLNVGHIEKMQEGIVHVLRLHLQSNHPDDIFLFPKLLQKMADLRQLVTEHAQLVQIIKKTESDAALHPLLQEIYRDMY

Rattus norvegicus [2] = organism: Rattus norvegicus; assay: (§1) Maximum achieved Total cholesterol reduction relative to vehicle treated control group; assay type: functional
Mus musculus [3] = organism: Mus musculus; assay: Effective dose which produces the desired nonfasting insuline levels after 7 days in 50% of the treated male db/db mice.; assay type: functional; conditions: 168 h
[4] = Area under blood glucose time curve after OGTT on the 9th day of treatment; assay type: ADME, tissue-based
[5] = target: T2, Peroxisome proliferator-activated receptor gamma (Homo sapiens, UniProt P37231)
T2 sequence (P37231 whole entry): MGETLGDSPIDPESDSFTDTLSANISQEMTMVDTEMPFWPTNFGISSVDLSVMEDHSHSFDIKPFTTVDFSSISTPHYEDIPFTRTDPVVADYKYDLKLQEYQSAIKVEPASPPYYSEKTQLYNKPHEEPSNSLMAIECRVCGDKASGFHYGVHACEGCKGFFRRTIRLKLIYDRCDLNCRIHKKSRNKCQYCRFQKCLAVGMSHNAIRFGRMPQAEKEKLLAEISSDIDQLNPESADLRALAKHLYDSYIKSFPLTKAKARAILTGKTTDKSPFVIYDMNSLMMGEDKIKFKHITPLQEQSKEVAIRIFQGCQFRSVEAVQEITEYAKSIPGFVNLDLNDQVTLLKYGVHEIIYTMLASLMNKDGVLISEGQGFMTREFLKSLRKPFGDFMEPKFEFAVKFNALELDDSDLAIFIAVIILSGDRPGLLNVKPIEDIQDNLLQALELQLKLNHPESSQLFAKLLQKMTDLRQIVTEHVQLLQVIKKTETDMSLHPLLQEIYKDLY
Description: In vitro transactivation using receptor transactivation assay against hPPAR gamma

Rattus norvegicus [6] = organism: Rattus norvegicus; assay: Effective dose which produces the desired nonfasting triglyceride levels in high cholesterol fed male Sprgue-Dawley rats.; assay type: functional
Rattus norvegicus [7] = organism: Rattus norvegicus; assay: (§2) Maximum achieved Nonfasted triglycerides reduction relative to vehicle treated control group; assay type: functional
[8] = Maximum plasma concentration after oral administration at a dose 2.2 mg/kg; assay type: ADME, organism-based; set-up: dose 2.2 mg/kg, route oral
Mus musculus [9] = organism: Mus musculus; assay: Effective dose which produces the desired nonfasting triglyceride levels after 7 days in 50% of the treated male db/db mice.; assay type: functional; conditions: 168 h
Rattus norvegicus [10] = organism: Rattus norvegicus; assay: Effective dose which produces the desired total cholesterol levels imale Sprgue-Dawley rats.; assay type: functional
Mus musculus [11] = organism: Mus musculus; assay: Maximum achieved insulin reduction relative to vehicle treated control group; assay type: functional
[12] = Clearance after oral administration; assay type: ADME, organism-based; conditions: in vivo
Mus musculus [13] = organism: Mus musculus; assay: Maximum achieved triglycerides reduction relative to vehicle treated control group; assay type: functional
[14] = Oral bioavailability; assay type: ADME, organism-based; conditions: eutheria, in vivo
Mus musculus [15] = organism: Mus musculus; assay: Effective dose which produces the desired nonfasting blood glucose levels after 7 days in 50% of the treated mice.; assay type: functional; conditions: 168 h
Mus musculus [16] = organism: Mus musculus; assay: Maximum achieved blood glucose reduction relative to vehicle treated control group; assay type: functional
[17] = Oral half life was reported; assay type: ADME, organism-based; conditions: in vivo
[18] = Area under plasma concentration time curve after oral administration at a dose 2.2 mg/kg; assay type: ADME, organism-based; set-up: dose 2.2 mg/kg, route oral
Mus musculus [19] = organism: Mus musculus; assay: Maximum achieved insulin reduction relative to vehicle treated control group; NE is Not Effective.; assay type: functional, organism-based
Mus musculus [20] = organism: Mus musculus; assay: Minimum concentration which produces the desired nonfasting triglyceride levels after 7 days in 50% of the treated male db/db mice.; assay type: functional; conditions: 168 h
[21] = Volume of distribution during steady state in rat; assay type: ADME, organism-based; conditions: in vivo, read-out: Vss
Mus musculus [22] = organism: Mus musculus; assay: Minimum concentration which produces the desired nonfasting blood glucose levels after 7 days in 50% of the treated mice.; assay type: functional; conditions: 168 h
[23] = Maximum plasma concentration after oral administration at a dose 2.2 mg/kg in rat; assay type: ADME, organism-based; set-up: dose 2.2 mg/kg, route oral
[24] = Clearance after oral administration in rat; assay type: ADME, organism-based; conditions: in vivo
[25] = Oral bioavailability in rat; assay type: ADME, organism-based; conditions: in vivo
Mus musculus [26] = assay: In vivo blood glucose area under curve after oral glucose tolerance test in male db/db mice at 1 mg/kg peroral dose of compound once in a day; assay type: ADME, organism-based; set-up: dose 1 mg/kg, route oral
[27] = as §2; assay type: functional
Mus musculus [28] = assay: In vivo % reduction of blood glucose area under curve after oral glucose tolerance test in male db/db mice at 1 mg/kg peroral dose of compound once in a day; assay type: ADME, organism-based; set-up: dose 1 mg/kg, route oral
Mus musculus [29] = assay: In vivo % reduction of blood glucose level in male db/db mice after administration of 1 mg/kg peroral dose of compound thrice a day; assay type: functional; conditions: route oral
Mus musculus [30] = assay: In vivo blood glucose level in male db/db mice after administration of 1 mg/kg peroral dose of compound once in a day; assay type: functional; conditions: route oral
Mus musculus [31] = assay: In vivo % reduction of blood glucose level in male db/db mice after administration of 0.33 mg/kg peroral dose of compound thrice a day; assay type: functional; conditions: route oral
Mus musculus [32] = organism: Mus musculus; assay: Nonfasting insulin after 7 days treatment in male db/db mice; assay type: functional; conditions: 168 h
Mus musculus [33] = assay: In vivo % reduction of blood glucose level in male db/db mice after administration of 3 mg/kg peroral dose of compound once in a day; assay type: functional; conditions: route oral
Mus musculus [34] = assay: In vivo blood glucose area under curve after oral glucose tolerance test in male db/db mice at 3 mg/kg peroral dose of compound once in a day; assay type: ADME, organism-based; set-up: dose 3 mg/kg, route oral
Mus musculus [35] = assay: In vivo % reduction of blood glucose area under curve after oral glucose tolerance test in male db/db mice at 0.33 mg/kg peroral dose of compound thrice a day; assay type: ADME, organism-based; set-up: dose 0.33 mg/kg, route oral
Mus musculus [36] = assay: In vivo blood glucose level in male db/db mice after administration of 1 mg/kg peroral dose of compound thrice a day; assay type: functional; conditions: route oral
Mus musculus [37] = assay: In vivo blood glucose level in male db/db mice after administration of 0.33 mg/kg peroral dose of compound thrice a day; assay type: functional; conditions: route oral
Mus musculus [38] = assay: In vivo blood glucose level in male db/db mice after administration of 3 mg/kg peroral dose of compound once in a day; assay type: functional; conditions: route oral
Mus musculus [39] = organism: Mus musculus; assay: Nonfasting blood glucose after 7 days treatment in male db/db mice; assay type: functional; conditions: 168 h
Mus musculus [40] = organism: Mus musculus; assay: Nonfasting triglycerides after 7 days treatment in male db/db mice; assay type: functional; conditions: 168 h
[41] = as §1; assay type: functional
Mus musculus [42] = assay: In vivo blood glucose area under curve after oral glucose tolerance test in male db/db mice at 1 mg/kg peroral dose of compound thrice a day; assay type: ADME, organism-based; set-up: dose 1 mg/kg, route oral
Mus musculus [43] = assay: In vivo blood glucose area under curve after oral glucose tolerance test in male db/db mice at 0.33 mg/kg peroral dose of compound thrice a day; assay type: ADME, organism-based; set-up: dose 0.33 mg/kg, route oral
Mus musculus [44] = assay: In vivo % reduction of blood glucose area under curve after oral glucose tolerance test in male db/db mice at 3 mg/kg peroral dose of compound once in a day; assay type: ADME, organism-based; set-up: dose 3 mg/kg, route oral
Mus musculus [45] = assay: In vivo % reduction of blood glucose area under curve after oral glucose tolerance test in male db/db mice at 1 mg/kg peroral dose of compound thrice a day; assay type: ADME, organism-based; set-up: dose 1 mg/kg, route oral
Mus musculus [46] = assay: In vivo % reduction of blood glucose level in male db/db mice after administration of 1 mg/kg peroral dose of compound once in a day; assay type: functional; conditions: route oral

Q: With `CCO[C@@H](Cc1ccc(OCCn2c3ccccc3c3ccccc32)cc1)C(=O)O` as the compound, how does the pEC50 [1] read?
A: 6.44

Q: What about the Reduction (Rattus norvegicus [2]) of the same compound?
A: 50%

Q: What about the ED50 (Mus musculus [3]) of the same compound?
A: 0.34 mg/kg

Q: What about the “AUC ED50” value [4] of the same compound?
A: 0.4 mg/kg

Q: And the Vd (in vivo)?
A: 0.73 L/kg

Q: What about the pEC50 [5] of the same compound?
A: 6.77

Q: And the ED50 (Rattus norvegicus [6])?
A: 0.06 mg/kg

Q: And the Reduction (Rattus norvegicus [7])?
A: 56%

Q: What about the Cmax [8] of the same compound?
A: 4430 ng/mL

Q: And the ED50 (Mus musculus [9])?
A: 0.52 mg/kg

Q: And the ED50 (Rattus norvegicus [10])?
A: 0.34 mg/kg

Q: What about the Max reduction (Mus musculus [11]) of the same compound?
A: 85%

Q: And the CL/F [12]?
A: 0.75 mL/min/kg

Q: And the Max reduction (Mus musculus [13])?
A: 52%

Q: What about the bioavailability [14] of the same compound?
A: > 100%

Q: What about the ED50 (Mus musculus [15]) of the same compound?
A: 0.27 mg/kg

Q: What about the Max reduction (Mus musculus [16]) of the same compound?
A: 58% and 55%

Q: And the half-life [17]?
A: 22.2 h

Q: What about the AUC ([18]; plasma, read-out: AUC (converted)) of the same compound?
A: 144000 ng·h/mL

Q: For `CCOC(Cc1ccc(OCCCN2c3ccccc3OCOc3ccccc32)cc1)C(=O)O` (stereo not given), which NE (Mus musculus [19]) is on record?
A: inactive

Q: What about the ED50 (Mus musculus [20]) of the same compound?
A: 18.3 mg/kg

Q: What about the pEC50 [1] of the same compound?
A: 5.92

Q: What about the “AUC ED50” value [4] of the same compound?
A: 6.57 mg/kg

Q: What about the Vd [21] of the same compound?
A: 0.76 L/kg

Q: And the pEC50 [5]?
A: 5.92

Q: What about the ED50 (Mus musculus [22]) of the same compound?
A: 8.11 mg/kg

Q: What about the Cmax [23] of the same compound?
A: 730 ng/mL

Q: And the Max reduction (Mus musculus [13])?
A: 13%

Q: And the CL/F [24]?
A: 13.7 mL/min/kg

Q: What about the Max reduction (Mus musculus [16]) of the same compound?
A: 17% and 20%

Q: What about the bioavailability [25] of the same compound?
A: 63%

Q: With `CN(CCOc1ccc(CC2SC(=O)NC2=O)cc1)c1ccccn1` (stereo not given) [ROSIGLITAZONE] as the compound, how does the AUC glu (Mus musculus [26]) read?
A: 2551 mM·min

Q: And the Reduction [27]?
A: 11%

Q: And the AUC glu reduction (Mus musculus [28])?
A: 14%

Q: What about the BG reduction (Mus musculus [29]) of the same compound?
A: 39%

Q: And the BG (Mus musculus [30])?
A: 16.08 mM

Q: What about the “AUC ED50” value [4] of the same compound?
A: 0.77 mg/kg

Q: What about the BG reduction (Mus musculus [31]) of the same compound?
A: 47%

Q: What about the ED50 (Mus musculus [32]) of the same compound?
A: 0.07 mg/kg

Q: What about the Cmax ([8]; rat) of the same compound?
A: 4420 ng/mL

Q: And the BG reduction (Mus musculus [33])?
A: 45%

Q: And the AUC glu (Mus musculus [34])?
A: 2141 mM·min

Q: And the Max reduction (Mus musculus [11])?
A: 43%

Q: And the AUC glu reduction (Mus musculus [35])?
A: 18%

Q: What about the CL/F [12] of the same compound?
A: 2.1 mL/min/kg

Q: What about the BG (Mus musculus [36]) of the same compound?
A: 13.06 mM

Q: And the BG (Mus musculus [37])?
A: 11.35 mM

Q: What about the BG (Mus musculus [38]) of the same compound?
A: 11.72 mM

Q: What about the Max reduction (Mus musculus [13]) of the same compound?
A: 58%

Q: What about the ED50 (Mus musculus [39]) of the same compound?
A: 0.87 mg/kg

Q: And the bioavailability [14]?
A: 83%

Q: And the ED50 (Mus musculus [40])?
A: 0.14 mg/kg

Q: And the Reduction [41]?
A: 24%

Q: And the AUC glu (Mus musculus [42])?
A: 1423 mM·min

Q: And the Max reduction (Mus musculus [16])?
A: 35% and 16%

Q: And the AUC glu (Mus musculus [43])?
A: 2398 mM·min

Q: And the AUC glu reduction (Mus musculus [44])?
A: 28%

Q: What about the “AUC glu reduction(mM x min)” value (Mus musculus [45]) of the same compound?
A: 51%

Q: And the AUC ([18]; in vivo)?
A: 14600 ng·h/mL

Q: What about the BG reduction (Mus musculus [46]) of the same compound?
A: 25%
